Results as given in patent US20220002674A1, “T CELLS WITH SUICIDE SWITCH” (priority 2018, published 2022).

Key:
EGFPluc+ iC9-T cells = test: T cell bioluminescence (IVIS) in NSG mice after rimiducid; format: in vivo
Experimental: (§1) In vivo studies were performed by i.v. injection of control or gene-modified T cells co-expressing luciferase into NSG mice. 1×10^7 EGFPluc+ iC9-T cells were infused into NSG mice. T cell bioluminescence was measured at 2 and 24 hours after infusion, followed by i.p. injection of a titrated dose of rimiducid or placebo (control drug). The animals were administered either control drug (temsirolimus; 1 mg/kg), rimiducid (0.001-1 mg/kg), or vehicle. Remaining T cell bioluminescence was measured at 6, 24 and 48 hours after drug administration. Bioluminescent imaging and flow cytometry were performed to assess in vivo depletion following iC9 activation.
The maximal elimination effect in the kill switch induced by rimiducid was reached 24 hours post drug administration. The values for average radiance were normalized to the initial radiance in each mouse using the formula: D Average radiance=100*[Timepoint “X” radiance]/[Timepoint “0” radiance]. Error bars represents S.E.M. Two-way ANOVA test was used to assess statistical significance of differences in T cell radiance between multiple groups at different time points.

AOS-1 cells = test: speed of elimination of low-, medium- and high-CD19 populations in mice after rimiducid (FIG. 27); format: in vivo; conditions: 5 mg/kg rimiducid on day 0, 1.5×10^7 AOS-1 cells on day −1
From the text: Figures are means from 40 mice.
Further experiments looked at the speed of elimination of low-CD19, medium-CD19 and high-CD19 populations after administration of rimiducid.

[1] = test system: CD3+CD19+ cells (iC9+ T cells); test: flow cytometric analysis of cells harvested from spleens 48 h post drug treatment; format: in vivo, NSG mice; conditions: for reduction of CD3+CD19+ cells in spleen: 48 h, compared to vehicle
Experimental: as §1
FIG. 18 depicts a flow cytometric analysis of cells harvested from spleens 48 h post drug treatment.

AOS-1 T cells = test: 4-hour apoptosis assay with 10 nM rimiducid on AOS-1 T cells sorted by CD19 intensity; format: cell-based, human; conditions: for CD19+ specific killing: low-CD19 sorted cells; for median killing efficacy: 10 nM, 4 hours
Experimental: To measure apoptosis 5×10^5 cells were plated per 48-well, and rimiducid was added at a concentration of 10 nM in a 4-hour assay. Phenotyping and functional assays (e.g., apoptosis) were performed by flow cytometry, qPCR and Western blot before and after T cell reactivation using anti-CD3/anti-CD28 antibodies. The phenotype of the cells was determined by staining cells for flow cytometry analysis with anti-CD3, anti-CD4, anti-CD8, anti-CD19, anti-CD45RA, anti-CD45RO, and anti-CCR7 antibodies. Terminal effector memory cells are defined as CD45RA^+CD45RO^−CCR7^−. T effector memory cells are defined as CD45RA^−CD45RO^+CCR7^−. T central memory cells are defined as CD45RA^−CD45RO^+CCR7^+. Naïve T cells are defined as CD45RA^+CD45RO^−CCR7^+. Diversity of the T cell receptor repertoire was assessed by flow cytometry.

CD3+CD19+ T cells = test: rimiducid treatment of patients engrafted with AOS-1 to control GvHD; format: in vivo, human
Experimental: Engraftment and persistence of the donor modified T cells were measured by co-expression of CD3 and CD19 by flow cytometry. Endogenous and gene-modified T cells were also phenotyped for CD4:CD8 ratios, memory cell composition (TN, TCM, TEM, TEMRA; CD45RA and CD62L) and T cell receptor Vβ diversity.

[2] = test system: genetically-modified T cells; test: rimiducid dose that eliminates infused genetically-modified T cells; format: in vivo; conditions: cells infused at 1.5×10^7 cells/kg
[3] = test system: WT1, PRAME, MAGE, NE and PR3; test: IFN-γ ELIspot for LAA-specific T cells against peptide pools; format: cell-based, human; conditions: 10 nM rimiducid
Experimental: PBMCs were mixed with pre-warmed (37° C.) cell culture media and centrifuged cells at […] for 10′ at 4° C. Cells were resuspended and counted using Cellometer. Cells were then centrifuged again at 1200 rpm for 10′. The cells were then resuspended in culture media at a concentration of 1×10^6/mL and 100 μL were added per well. 100 μL of 2X peptide stock or PHA were added to the desired wells. The plates were mixed gently for 2′. The plates were transferred to a 37° C. incubator with 5% CO2 and incubated for 18-24 hours. 100 μL capture anti-IFNγ antibody was added to each PBS-pre wetted well. The plates were then incubated at 4±3° C. overnight. After incubation the plates were washed 3 times with 200 μL D-PBS. Unbound sites were blocked with 100 μL D-PBS containing 10% culture media for 120+15 minutes at room temperature in a BSC. The plates were then washed 3 times with 200 μL D-PBS. 200 μL D-PBS were added into the wells. The plates were left at room temperature until the cells are ready. When cells were ready plates were removed from the incubator and the wells rinsed 2 times with tap water. The plates were then washed 5 times with D-PBS, containing 0.05% Tween 20. The wells and well bottoms were rinsed with distilled water. […] Plates were left to dry at room temperature before reading on an ELISpot reader.

[4] = human, in vivo; cited from earlier work

CC[C@H](C(=O)N1CCCC[C@H]1C(=O)O[C@H](CCc1ccc(OC)c(OC)c1)c1cccc(OCC(=O)NCCNC(=O)COc2cccc([C@@H](CCc3ccc(OC)c(OC)c3)OC(=O)[C@@H]3CCCCN3C(=O)[C@@H](CC)c3cc(OC)c(OC)c(OC)c3)c2)c1)c1cc(OC)c(OC)c(OC)c1 (relative stereo) [rimiducid, 2-Piperidinecarboxylic acid, 1-[(2S)-1-oxo-2-(3,4,5-trimethoxyphenyl)butyl]-, 1,2-ethanediylbis[imino(2-oxo-2,1-ethanediyl)oxy-3,1-phenylene[(1R)-3-(3,4-dimethoxyphenyl)propylidene]] ester, [2S-[1(R*),2R*[S*[S*[1(R*),2R*]]]]]-(9CI)]
reduction of relative total flux (EGFPluc+ iC9-T cells; 0.01 mg/kg i.p., 6-hour): 82.5% | reduction of relative total flux (EGFPluc+ iC9-T cells; 0.01 mg/kg i.p., 24-hour): 90.5% | reduction of relative total flux (EGFPluc+ iC9-T cells; 0.01 mg/kg i.p., 48-hour): 90.5% | reduction of relative total flux (EGFPluc+ iC9-T cells; 0.1 mg/kg i.p., 6-hour): 92.5% | reduction of relative total flux (EGFPluc+ iC9-T cells; 0.1 mg/kg i.p., 24-hour): 95.5% | reduction of relative total flux (EGFPluc+ iC9-T cells; 0.1 mg/kg i.p., 48-hour): 95.3% | reduction of relative total flux (EGFPluc+ iC9-T cells; 1 mg/kg i.p., 6-hour): 96% | reduction of relative total flux (EGFPluc+ iC9-T cells; 1 mg/kg i.p., 24-hour): 98.1% | reduction of relative total flux (EGFPluc+ iC9-T cells; 1 mg/kg i.p., 48-hour): 98.1% | time at which maximal elimination effect was reached (EGFPluc+ iC9-T cells; post drug administration): 24 h | elimination of CD19-high cells (AOS-1 cells): eliminated within half an hour | elimination of CD19-low cells (AOS-1 cells): declined more slowly | elimination of CD19-medium cells (AOS-1 cells): fell to near-zero within an hour | reduction of CD3+CD19+ cells in spleen ([1]; 0.01 mg/kg): 99.6% | reduction of CD3+CD19+ cells in spleen ([1]; 0.1 mg/kg): 98.6% | reduction of CD3+CD19+ cells in spleen ([1]; 1 mg/kg): 89.6% | MFI of CD19 in CD3+CD19+ cells ([1]; treated groups, down to 0.001 mg/kg): dose dependent decrease | apoptosis (AOS-1 T cells; all fractions after reactivation with anti-CD3/anti-CD28): over 90% | cells gone through apoptosis (AOS-1 T cells; high MFI of CD19 cells, 10 nM rimiducid, within 4 hours): more than 95% | CD19+ specific killing (AOS-1 T cells; after activation in vitro): 97% | CD19+ specific killing (AOS-1 T cells; before activation): 46% | median killing efficacy (AOS-1 T cells; sorted high CD19 cells): 92% | median killing efficacy (AOS-1 T cells; sorted low CD19 cells): 69% | median killing efficacy (AOS-1 T cells; sorted medium CD19 cells): 87% | killing (AOS-1 T cells; unstimulated high iC9-ΔCD19 cells): 86% | killing (AOS-1 T cells; unstimulated low iC9-ΔCD19 cells): 50% | killing (AOS-1 T cells; unstimulated medium iC9-ΔCD19 cells): 76% | course of CD3+CD19+ T cells and GvHD after rimiducid (CD3+CD19+ T cells; patients treated with rimiducid): recovered without further instances of GvHD | decrease of CD3+CD19+ T cells in the peripheral blood (CD3+CD19+ T cells; three patients with GvHD): 62±12% | dose that can eliminate cells [2]: 0.4 mg/kg | LAA-reactivity on exposure to rimiducid [3]: greatly diminished | safety in healthy volunteers [4]: proven safe in healthy volunteers
